Series [1] addresses T1, glycine binding site of the NMDA receptor channel (Rattus norvegicus, UniProt P35439).
T1 construct: from tissue; host or cells: rat brain cortex and hippocampus membrane homogenate (male Wistar rats, Charles River)
Description: Receptor binding test, displacement of (3H)-MDL 105.519 on rat cerebral membrane homogenates. The settings on record: rat cortex and hippocampus membranes, 1 nmol/l (3H)-MDL 105.519; Ki from IC50 by Cheng-Prusoff. The method, then: Studies for determination of the affinity of the substituted pyrrolidine-2,3,4-trione 3-oxime derivatives of the general formula I according to the invention for the glycine binding site of the NMDA receptor channel were carried out on cerebral membrane homogenates (homogenate of the cortex and hippocampus area from the brain of male rats, Wistar strain, Charles River, WIGA GmbH, Sulzbach, Germany) by the method of Baron B. M. et al, J. Pharmacol. Exp. Ther., vol. 279, pp.62-68 (1996). […]
In the binding test, 50 mmol/l TRIS-acetate buffer pH 7.0 was employed as the buffer and 1 nmol/l (^3H)-MDL 105.519 (Baron B. M. et al, J. Pharmacol. Exp. Ther., vol. 279, pp. 62-68 (1996)) was employed as the radioactive ligand. The proportion of non-specific binding was determined in the presence of 1 mmol/l glycine.
In further batches, the compounds according to the invention were added in concentration series and the displacement of the radioactive ligand from its specific binding to the glycine binding site of the NMDA receptor channel was determined. […]

A further series relates to male albino mice (NMRI). Description: Formalin test in mice, second (late) phase. The format is in vivo. Particulars: second (late) phase of formalin test.
The subject of the next series is male NMRI mice. Description: Phenylquinone-induced writhing test in the mouse. Type of series: in vivo. The method, then:
The study of the analgesic activity was also carried out in the phenylquinone-induced writhing in the mouse (modified by I. C. Hendershot et al, (1959) J. Pharmacol. Exp. Ther., vol. 125, pp. 237-240). Male NMRI mice weighing 25 to 30 g (Iffa, Credo, Belgium, were used for this. Groups of 10 animals per substance dose received 0.3 ml/mouse of a 0.02% aqueous solution of phenylquinone (phenylbenzoquinone, Sigma, Deisenhofen; preparation of the solution with the addition of 5% ethanol and storage in a water bath at 45° C.) administered intraperitoneally 10 minutes after intravenous administration of the particular compound. The animals were placed individually in observation cages. The number of pain-induced stretching movements (so-called writhing reactions=straightening of the body with stretching of the hind extremities) was counted by means of a push-button counter for 5 to 20 minutes after the administration of phenylquinone. Animals which received only physiological saline solution were also run as a control. All the substances were tested in the standard dosage of 10 mg/kg of body weight of the mouse. The percentage inhibition (% inhibition) of the writhing reaction by a substance was calculated according to the following equation: [formula]
For some of the compounds according to the invention the ED50 values with the 95% confidence range of the writhing reaction were calculated by means of regression analysis (evaluation program from Martens EDV Service, Eckental) from the dose-dependent decrease in the writhing reactions compared with phenylquinone control groups investigated in parallel.
The study of the analgesic activity was carried out in the phenylquinone-induced writhing in mice as described above.
(In general: In writhing tests, fewer writhes than in controls are read as antinociception.)

One may read the melting point as the temperature of the solid-liquid transition. In general, Ki refers to the dissociation constant of the complex between target and ligand, obtained from inhibition or displacement. A lower Ki goes with tighter binding.

SMILES strings stand for the structures.

Description for male albino mice (NMRI): The studies for determination of the antinociceptive action of the compounds according to the invention were carried out in the formalin test in male albino mice (NMRI, 25-35 g, Iffa Credo, Belgium).
The compounds according to the invention were investigated in the second phase of the formalin test to obtain information on the actions of the compounds according to the invention on chronic/inflammatory pain.
By a single subcutaneous formalin injection (20 μl, 1% aqueous solution) into the dorsal side of the right hind paw of freely mobile test animals, a nociceptive reaction was induced, which manifests itself in significant licking and biting of the paw affected.
For the investigation period in the second (late) phase of the formalin test, the nociceptive behavior was recorded continuously by observing the animals. […] After injection of substances which have an antinociceptive action in the formalin test, the modes of behaviour described for the animals are reduced, and possibly even eliminated. […] The behaviour of the rats after administration of the substance was compared with a control group (10 mice per substance dose).
On the basis of the quantification of the pain properties, the action of the substance in the formalin test was determined as a change from the control in per cent. The ED50 calculations were made by means of regression analysis. […]

Molecule `COC(=C1NC(=O)C(=NO)C1=O)c1ccccc1` [Example 1, 5-(Methoxyphenylmethylene)-pyrrolidine-2,3,4-trione 3-oxime] came in with a melting point of 174 °C. Regarding `O=C1NC(=C(Br)c2ccccc2)C(=O)C1=NO` [Example 2, 5-(Bromophenylmethylene)-pyrrolidine-2,3,4-trione 3-oxime], the melting point was 158 °C. The molecule also gave a Ki in series [1] of 0.43 µM. For the same molecule, the “% change from the control at 10 mg/kg” value in the series with male albino mice (NMRI) was found to be 36.3%. For the molecule `O=C1NC(=Cc2ccccc2Cl)C(=O)C1=NO` [Example 4, 5-(2-Chlorobenzylidene)-pyrrolidine-2,3,4-trione 3-oxime], the melting point stood at 176 °C. Moreover, the “% inhibition of the writhing reaction at 10 mg/kg intravenously” value (from here on “% inhibition of the writhing reaction”) in the series on male NMRI mice is on record as 55%.

The molecule `O=C1NC(=Cc2ccc(Cl)cc2)C(=O)C1=NO` [Example 5, 5-(4-Chlorobenzylidene)-pyrrolidine-2,3,4-trione 3-oxime] had a melting point of 190 °C. Moreover, in the series with male NMRI mice, the “% inhibition of the writhing reaction” value is on record as 50%. In the case of `O=C1NC(=Cc2cccc(Cl)c2Cl)C(=O)C1=NO` [Example 6, 5-(2,3-Dichlorobenzylidene)-pyrrolidine-2,3,4-trione 3-oxime], the “% inhibition of the writhing reaction” value in the series on male NMRI mice is given as 52%. `O=C1NC(=Cc2ccc(Cl)cc2Cl)C(=O)C1=NO` [Example 7, 5-(2,4-Dichlorobenzylidene)-pyrrolidine-2,3,4-trione 3-oxime]: the melting point was found to be 180 °C. Further, the “% inhibition of the writhing reaction” value in the series on male NMRI mice turned out to be 46%.

Consider `O=C1NC(=Cc2c(Cl)cccc2Cl)C(=O)C1=NO` [Example 8, 5-(2,6-Dichlorobenzylidene)-pyrrolidine-2,3,4-trione 3-oxime], for which the melting point is 232 °C. Also, the “% inhibition of the writhing reaction” value with male NMRI mice is given as 51%. The corresponding values for `O=C1NC(=Cc2cccc(Cl)c2)C(=O)C1=NO` [Example 9, 5-(3-Chlorobenzylidene)-pyrrolidine-2,3,4-trione 3-oxime] are 185 °C and 81%.

The record behind these values is US6716872B2, “Substituted pyrrolidine-2,3,4-trione 3-oxime derivatives which are active as NMDA receptor antagonists” (Gruenenthal GmbH, priority 1999, dated 2004).
